# Experimental data published in patent US11185528B2, “ALDA-1 treatment and prevention of pulmonary disease” (University of South Florida, priority 2018, dated 2021).
# Legend:
# [1] = test system: 4HNE; assay: Oxidative stress assay, 4HNE adduct competitive ELISA on whole cell lysate; type: cell-based, human; details: HMVEC pretreated with 20 μM, hyperoxia 48 hours
# Description: (§1) HMVEC's were preserved in EGM-2 MV media (Lonza, Wakersville, Md.) and supplemented with FBS (25 ml), Hydrocortisone (0.2 ml), hFGF-B (2.0 ml), VEGF (0.5 ml), R3 IGF-1 (0.5 ml), Ascorbic acid (0.5 ml), hEGF (0.5 ml), GA-1000 (0.5 ml) at 37° C. in a 5% carbon dioxide-humidified incubator to maintain sufficient cell growth. The cultured cells were validated for confluence (around 70%) and exposed to hyperoxia for 48 hours with and without Alda-1.
# The samples of whole cell lysate (50 μg) were seeded in each well. Oxidative stress was measured by an oxiselect 4HNE adduct competitive ELISA kit (Cell Biolabs), according to the instructions of kit.
# [2] = test system: hyperoxia-induced acute lung injury; assay: Example 4: mice exposed to hyperoxia 48 hours, lung lysate immunoblot and BAL fluid analysis; type: in vivo, C57BL/6 mice; details: 20 mM via alzet pumps
# Description: C57BL/6 mice were exposed to hyperoxia for 48 hours with DMSO (Control) and Alda-1 (20 mM) via alzet pumps on the dorsal side of mice. The mice were divided into four groups: normoxia+DMSO (room air), normoxia+Alda-1, hyperoxia+DMSO, and hyperoxia+Alda-1. The lungs were harvested and the bronchoalveolar lavage (BAL) fluid was collected and analyzed by immunoblot and cytokine levels.
# [3] = test system: acute lung injury; assay: Example 6: mice exposed to 100% oxygen 48 hours, BAL fluid, Diff Kwik staining, H&E staining, western blot; type: in vivo, C57BL/6 mice; details: 20 μM via osmotic pumps
# Description: The C57BL/6 mice were embedded with osmotic pumps and continuously injected with either DMSO or Alda-1 (20 μM), then they were exposed to 100% oxygen 48 hours. The lung samples, as well as Bronchial Alveolar Lavage Fluid, were collected for the evaluation of infiltration of cytokines, inflammation, autophagy, and apoptosis by Diff Kwik staining, H&E staining, and western blot.
# [4] = test system: human microvascular endothelial cells (HMVEC); assay: JC-1 staining, mitochondrial membrane potential; type: cell-based
# Description: (§2) Cells obtained were human microvascular endothelial cells (HMVECs). Cell culture medium was EBM-2 containing 10% FBS plus antibiotics. Assays were MitoSOX, JC1, Histology, Western blot, and ALDH2 activity. Antibodies used were mouse anti-ALDH2 antibody, Cytochrome C, and Beclin (cell signaling).
# (§3) HMVECs were seeded and, after reaching confluence, treated with DMSO and Alda-1. Cells were then exposed to normoxia or hyperoxia at different time points. After 24, 48, and 72 hours, cells were collected for mitochondrial analyses.
# HMVEC-L cells were maintained in a EGM-2 (Lonza) media supplemented with FBS (25 ml), Hydrocortisone (0.2 ml), hFGF-B (2.0 ml), VEGF (0.5 ml), R3 IGF-1 (0.5 ml), Ascorbic acid (0.5 ml), hEGF (0.5 ml), GA-1000 (0.5 ml) at 37° C. in a 5% carbon dioxide humidified incubator to maintain a sufficient cell growth. The HMVEC-L cells were plated at density of 1×10,000 cells in a cell view dish with glass bottom (Thomas scientific). When cells attained 70% confluency, they were exposed to hyperoxia for 48 hours with Alda-1 and without Alda-1. Following exposure to hyperoxia, the HMVEC-L cells were washed by HBSS solution (without Ca+ and Mg+) (Gibco). […] The live cell imaging was conducted using fluorescence microscopy (Olympus). The green and red images were captured in fluorescence and images were quantified by image J by red to green ratio.
# [5] = target: T1, ALDH2 (Homo sapiens, UniProt P05091); assay: ALDH2 enzymatic activity assay (340 nm) on mitochondrial lysate of HMVEC; type: cell-based
# T1 construct: Cells obtained were human microvascular endothelial cells (HMVECs); endogenous in cells; host or cells: HMVEC / HMVEC-L (human lung microvascular endothelial cells)
# T1 sequence (P05091 18-517): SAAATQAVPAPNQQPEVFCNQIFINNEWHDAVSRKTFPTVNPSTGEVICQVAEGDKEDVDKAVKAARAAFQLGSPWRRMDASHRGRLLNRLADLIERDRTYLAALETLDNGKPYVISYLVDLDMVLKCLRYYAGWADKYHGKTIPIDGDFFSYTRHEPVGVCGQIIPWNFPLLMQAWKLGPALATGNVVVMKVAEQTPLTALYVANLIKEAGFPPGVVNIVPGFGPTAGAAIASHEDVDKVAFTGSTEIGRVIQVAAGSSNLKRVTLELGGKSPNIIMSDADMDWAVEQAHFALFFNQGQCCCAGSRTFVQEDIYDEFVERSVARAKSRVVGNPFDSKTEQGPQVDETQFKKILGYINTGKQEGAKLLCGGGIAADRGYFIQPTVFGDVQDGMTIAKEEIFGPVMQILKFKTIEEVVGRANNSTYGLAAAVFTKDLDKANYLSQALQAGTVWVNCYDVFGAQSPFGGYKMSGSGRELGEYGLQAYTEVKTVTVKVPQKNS
# Description: as §2, §3, §1
# The enzymatic activity of ALDH2 was measured by transformation of acetaldehyde to acetic acid (Chen et al., 2008). The HMVEC-L cells were cultured as mentioned above, followed by 300 μl of buffer (10 mM DTT, 100 mM Tris-HCl pH 8.0, 20% glycerol, 1% Triton X-100) and centrifuged at 55000 g for 30 minutes at 4° C. […] The specificity of enzyme reaction was expressed as nmol NADH/minute/mg protein.
# [6] = test system: hyperoxia-induced damage; assay: Example 5: mice exposed to hyperoxia 48 hours, lung lysate immunoblot; type: in vivo, C57BL/6 mice; details: 20 μM via Alzet pumps
# Description: C57BL/6 mice were pretreated with DMSO (control) and 20 μM Alda-1 (administered via Alzet pumps), then exposed to hyperoxia for 48 hours. The mice were divided into three groups: Room air, hyperoxia (48 hour)+DMSO, and hyperoxia (48 hour)+Alda-1. The lung tissues were harvested, and lysates evaluated by immunoblot analysis.
# [7] = test system: cytochrome C; assay: Western blot of whole cell lysate, cytochrome C; type: cell-based, human
# Description: as §2, §3
# The HMVEC-L cells were cultured and after reaching confluence (70%), were exposed to hyperoxia with or without Alda-1 for 48 hours. The concentration was determined by the proOX p100 sensor (Biospherix). After hyperoxia, the cell pellets were collected by centrifugation and the cell pellets were suspended in lysis buffer (20 mM Tris HCL, pH7.4, 150 mM Nacl, 0.5% Triton-x 100) and the supernatant was collected after centrifugation at high speed (14000 g) for 15 minutes at 4° C. The amount of protein was calculated by BCA assay kit (Pierce, Rockford, Ill.). […] The bands were developed by pierce EC1 (Thermo Fischer scientific) and films with protein bands were scanned and analyzed densitometrically by NIH ImageJ software. The ratio of protein to loading control was taken and analyzed in percentages.
# [8] = test system: Bax; assay: Western blot of whole cell lysate, Bax; type: cell-based, human; details: HMVEC pretreated with 20 μM, hyperoxia 48 hours, normalized to β-actin
# Description: (§4) The HMVEC-L cells were cultured and after reaching confluence (70%), were exposed to hyperoxia with or without Alda-1 for 48 hours. The concentration was determined by the proOX p100 sensor (Biospherix). After hyperoxia, the cell pellets were collected by centrifugation and the cell pellets were suspended in lysis buffer (20 mM Tris HCL, pH7.4, 150 mM Nacl, 0.5% Triton-x 100) and the supernatant was collected after centrifugation at high speed (14000 g) for 15 minutes at 4° C. The amount of protein was calculated by BCA assay kit (Pierce, Rockford, Ill.). Equivalent amount of protein (15 μg) subjected to SDS-PAGE using between 4-20% tris-glycine gel (Bio-rad) after which electro transfer with PVDF membrane was performed, followed by blocking in 5% skim milk with washes with TBST. The membranes were treated with primary and secondary antibodies. The bands were developed by pierce EC1 (Thermo Fischer scientific) and films with protein bands were scanned and analyzed densitometrically by NIH ImageJ software. The ratio of protein to loading control was taken and analyzed in percentages.
# [9] = test system: ALDH2; assay: Western blot of whole cell lysate, ALDH2 expression; type: cell-based, human; details: HMVEC pretreated with 20 μM, hyperoxia 48 hours, normalized to β-actin
# Description: as §4
# [10] = test system: human microvascular endothelial cells (HMVECs); assay: MitoSOX mitochondrial ROS production; type: cell-based; details: Example 1
# Description: as §2, §3
# [11] = HMVECs, Example 1, hyperoxia, 24 and 48 hours
compound,measurement,setting,value
"O=C(NCc1ccc2c(c1)OCO2)c1c(Cl)cccc1Cl [Alda-1, N-(1,3-Benzodioxol-5-ylmethyl)-2,6-dichlorobenzamid]",decrease in 4HNE accumulation compared to untreated HMVEC exposed to hyperoxia,[1],26%
same,Drp1 level in lung lysate vs DMSO,[2],decreased levels
same,OPA1 level in lung lysate vs DMSO,[2],decreased levels
same,infiltration of macrophages in BAL fluid vs DMSO,[2],less infiltration
same,LC3B (western blot),[3],reduced
same,NF-κB-p65 (western blot),[3],reduced
same,autophagy,[3],decrease
same,cytochrome C release (western blot),[3],reduced
same,"cytokine and neutrophil infiltration and inflammation, DMSO mice vs Alda-1 mice",[3],more cytokine and neutrophil infiltration and elevated inflammation than mice treated with Alda-1
same,inflammation,[3],decrease
same,oxidative stress,[3],decrease
same,increase in mitochondrial membrane potential (JC-1 red to green ratio) compared to hyperoxia without treatment,"[4]; HMVEC, 20 μM, hyperoxia 48 hours",1.62 fold
same,mitochondrial membrane potential,[4]; [11],rescued
same,increase in ALDH2 activity compared to hyperoxia without pretreatment,"[5]; HMVEC mitochondrial extract, 20 μM, hyperoxia 48 hours",45%
same,ALDH2 activity,"[5]; HMVECs, Example 1, during both normoxia and hyperoxia",elevated
same,PTEN-induced kinase 1 (PINK1) level vs hyperoxic controls,[6],decrease
same,mitofusin 1 (MFN1) level in lung lysates vs hyperoxia only,[6],decreased levels
same,mitofusin 2 (MFN2) level in lung lysates vs hyperoxia only,[6],decreased levels
same,decrease in cytochrome C compared to hyperoxia without pretreatment,"[7]; HMVEC pretreated with 20 μM, hyperoxia 48 hours, normalized to β-actin",64%
same,Cytochrome C release,[7]; [11],decreased
same,decrease in Bax compared to hyperoxia without pretreatment,[8],25%
same,effect on ALDH2 expression in hyperoxia,[9],no effect
same,mitochondrial ROS production,[10],suppressed
